Like-named read-outs stand apart in the source and are kept apart here.
What was measured:
renal cell carcinoma = details: human, in vivo; cited from earlier work
[1] = system: prostate cancer, renal cell carcinoma, or multiple myeloma; details: in vivo; cited from earlier work
[2] = system: refractory acute myeloid leukemia; details: twice weekly administration; cited from earlier work
[3] = human, in vivo; cited from earlier work
advanced kidney cancer = details: after a 12-week treatment period, compared to the placebo group; cited from earlier work
[4] = system: advanced stage III or IV non-small cell lung cancer; details: progressive disease after standard chemotherapies; cited from earlier work
[5] = system: EGF-dependent cell proliferation; details: cited from earlier work
[6] = system: refractory ovarian cancer; details: in vivo; cited from earlier work
MDA-MB-361 = assay: gefitinib sensitivity (IC50) of cancer cell line
BT474 = assay: gefitinib sensitivity (IC50) of cancer cell line
MDA-MB-453 = assay: gefitinib sensitivity (IC50) of cancer cell line
SkOv3 = assay: gefitinib sensitivity (IC50) of cancer cell line
A431 = assay: gefitinib sensitivity (IC50) of cancer cell line
DU145 = assay: gefitinib sensitivity (IC50) of cancer cell line
Akt = details: gefitinib concentration of 10 μM, data from FIG. 3 of Moasser et al., cited from earlier work
SkBr3 = assay: gefitinib sensitivity (IC50) of cancer cell line
[7] = system: non-small cell lung cancer; details: patients with refractory non-small cell lung cancer in whom standard therapy failed; cited from earlier work
[8] = system: hormone refractory prostate cancer; details: in vivo; cited from earlier work

Clc1ccc(Nc2nnc(Cc3ccncc3)c3ccccc23)cc1 [vatalanib]
patients with minor responses (renal cell carcinoma): 15% | patients with partial responses (renal cell carcinoma): 5%

Cc1cc(C)c(/C=C2\C(=O)Nc3ccccc32)[nH]1 [semaxinib]
objective response rates [1]: minimal objective response rates | complete responses [2]: 1 | partial responses [2]: 7 | most common / toxic side-effects [3]: headache, nausea, vomiting, asthenia, pain at the infusion site, phlebitis, change in voice, and fever

CNC(=O)c1cc(Oc2ccc(NC(=O)Nc3ccc(Cl)c(C(F)(F)F)c3)cc2)ccn1 [sorafenib]
patients whose disease did not progress (advanced kidney cancer): statistically higher percentage of patients whose disease did not progress | most common / toxic side-effects [3]: skin reactions such as hand-foot syndrome and rash, diarrhea, fatigue, weight loss, and hypertension

C#Cc1cccc(Nc2ncnc3cc(OCCOC)c(OCCOC)cc23)c1 [erlotinib]
median survival [4]: 8.4 months | response rate [4]: 12% | inhibits EGF-dependent cell proliferation [5]: nanomolar concentrations | most common / toxic side-effects [3]: an acneiform skin rash and diarrhea

C=CC(=O)Nc1cc2c(Nc3ccc(F)c(Cl)c3)ncnc2cc1OCCCN1CCOCC1 [canertinib]
antitumor activity [6]: minimal antitumor activity

CS(=O)(=O)CCNCc1ccc(-c2ccc3ncnc(Nc4ccc(OCc5cccc(F)c5)c(Cl)c4)c3c2)o1 [lapatinib]
most common / toxic side-effects [3]: diarrhea and skin rash

COc1cc2ncnc(Nc3ccc(F)c(Cl)c3)c2cc1OCCCN1CCOCC1 [gefitinib]
CATAG (gefitinib-sensitive) (MDA-MB-361): 1 (An IC50 <9 μM was considered gefitinib-sensitive (“CATAG” = 1)) | CATAG (gefitinib-sensitive) (BT474): 1 (An IC50 <9 μM was considered gefitinib-sensitive (“CATAG” = 1)) | CATAG (gefitinib-sensitive) (MDA-MB-453): 1 (An IC50 <9 μM was considered gefitinib-sensitive (“CATAG” = 1)) | CATAG (gefitinib-sensitive) (SkOv3): 1 (An IC50 <9 μM was considered gefitinib-sensitive (“CATAG” = 1)) | CATAG (gefitinib-sensitive) (A431): 1 (An IC50 <9 μM was considered gefitinib-sensitive (“CATAG” = 1)) | CATAG (gefitinib-sensitive) (DU145): 1 (An IC50 <9 μM was considered gefitinib-sensitive (“CATAG” = 1)) | Akt (level of Akt activity) (Akt; A431): 2 | Akt (level of Akt activity) (Akt; A549): 85 | Akt (level of Akt activity) (Akt; BT474): 10 | Akt (level of Akt activity) (Akt; Colo205): 105 | Akt (level of Akt activity) (Akt; DU145): 35 | Akt (level of Akt activity) (Akt; DU4475): 105 | Akt (level of Akt activity) (Akt; MCF-7): 70 | Akt (level of Akt activity) (Akt; MDA-MB-361): 20 | Akt (level of Akt activity) (Akt; MDA-MB-453): 40 | Akt (level of Akt activity) (Akt; MDA-MB-468): 90 | Akt (level of Akt activity) (Akt; MDA-MIB-231): 70 | Akt (level of Akt activity) (Akt; PC3): 55 | Akt (level of Akt activity) (Akt; SkBr3): 2 | Akt (level of Akt activity) (Akt; SkOv3): 40 | Akt (level of Akt activity) (Akt; T24): 90 | Akt (level of Akt activity) (Akt; T47D): 85 | Akt (level of Akt activity) (Akt; ZR75): 85 | CATAG (gefitinib-sensitive) (SkBr3): 1 (An IC50 <9 μM was considered gefitinib-sensitive (“CATAG” = 1)) | response rate [7]: about 10%

Cc1oncc1C(=O)Nc1ccc(C(F)(F)F)cc1 [leflunomide]
patients with a decrease in prostate specific antigen of greater than 50% [8]: about 7% | patients with partial responses [8]: less than 5% | most common / toxic side-effects [3]: asthenia, nausea, anorexia, and anemia

— US7908091B2, “Methods of predicting and monitoring tyrosine kinase inhibitor therapy” (Prometheus Laboratories Inc., priority 2006, dated 2011)
